Target: T1, BMPR1B (ALK6) (Homo sapiens, UniProt O00238)
T1 construct: purchased Thermo Fisher Scientific (Life Technologies) SelectScreen
Test: SelectScreen LanthaScreen
Type: binding
Conditions: read-out: % displacement
Outline: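 Percent values come from Thermo SelectScreen profiling of NU5455, combining activity and binding assays. CSF1R was run in Z'LYTE format at Km app ATP, and CAMK1 in Adapta format with ATP listed at 10.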

T1 sequence (O00238 14-502): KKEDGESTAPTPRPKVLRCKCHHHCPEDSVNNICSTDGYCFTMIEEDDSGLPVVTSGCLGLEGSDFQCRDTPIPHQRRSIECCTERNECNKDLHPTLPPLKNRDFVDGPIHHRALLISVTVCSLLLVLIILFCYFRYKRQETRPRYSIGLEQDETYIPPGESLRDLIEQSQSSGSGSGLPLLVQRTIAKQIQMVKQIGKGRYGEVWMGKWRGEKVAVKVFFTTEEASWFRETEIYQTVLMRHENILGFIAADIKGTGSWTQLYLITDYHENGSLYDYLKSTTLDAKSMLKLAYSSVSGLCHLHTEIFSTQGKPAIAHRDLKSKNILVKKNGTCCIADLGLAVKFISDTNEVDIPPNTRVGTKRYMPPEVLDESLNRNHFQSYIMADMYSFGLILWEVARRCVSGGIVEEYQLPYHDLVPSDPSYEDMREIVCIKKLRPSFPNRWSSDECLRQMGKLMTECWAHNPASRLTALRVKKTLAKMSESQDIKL

In the case of CN(C(=O)CN1CCOCC1)c1ccc2sc3c(-c4cccc5c(=O)cc(N6CC7CCC(C6)O7)oc45)cccc3c2c1 [NU5455], the inhibition at 1 µM is reported as 14.5%.
